From ChEMBL document CHEMBL4402519, “The Mediterranean Diet as source of bioactive compounds with multi-targeting anti-cancer profile” (Eur J Med Chem, 2019)
Converted amounts (≈) assume the structure as drawn.

What was measured:
HL-60 = assay: Growth inhibition of human HL60 cells after 72 hrs by MTT assay; format: functional, cell-based; conditions: HL-60, 72 h
PC-3 [1] = assay: Antiproliferative activity against human PC3 cells after 48 hrs by MTT assay; format: functional, cell-based; conditions: PC-3, 48 h
PC-3 [2] = assay: Antiproliferative activity against human PC3 cells after 24 hrs by MTT assay; format: functional, cell-based; conditions: PC-3, 24 h
COLO 205 [3] = assay: Induction of apoptosis in human COLO205 cells after 24 hrs relative to control; format: functional
COLO 205 [4] = assay: Induction of apoptosis in human COLO205 cells after 24 hrs; format: functional, cell-based; conditions: COLO 205, 24 h

`O=C1c2c(O)cc(O)cc2O[C@H](c2ccc(O)c(O)c2)[C@H]1O` [(+)-TAXIFOLIN] showed an IC50 (HL-60) of 0.01 to 0.94 µg/mL (≈ 0.0329 to 3.09 µM).

`COc1ccc([C@@H]2CC(=O)c3c(O)cc(O)cc3O2)cc1O` [HESPERETIN] was tested, and the IC50 (PC-3 [1]) was 40 µM and the IC50 (PC-3 [2]) was 90 µM.

Work on `COc1ccc(-c2cc(=O)c3c(OC)c(OC)c(OC)c(OC)c3o2)cc1OC` [NOBILETIN] yielded an IC50 (HL-60) of 0.01 to 0.94 µg/mL (≈ 0.0249 to 2.34 µM).

Work on `O=c1c(O)c(-c2ccc(O)c(O)c2)oc2cc(O)cc(O)c12` [QUERCETIN] yielded an IC50 (HL-60) of 0.01 to 0.94 µg/mL (≈ 0.0331 to 3.11 µM).

`CC(C)c1cc2c(c(O)c1O)[C@@]13CCCC(C)(C)[C@@H]1[C@H](OC3=O)[C@H]2O` [ROSMANOL] was tested, and the Activity (COLO 205 [3]) was 51% and the IC50 (COLO 205 [4]) was 42 µM.

`COc1ccc(-c2cc(=O)c3c(OC)c(OC)c(OC)c(OC)c3o2)cc1` [TANGERETIN] gave an IC50 (HL-60) of 0.01 to 0.94 µg/mL (≈ 0.0269 to 2.52 µM).
